In patent US20090281049A1, “New use of ginsenoside compound-k in manufacturing medicaments” (priority 2006, published 2009):

Legend:
[1] = tested on: Collagen Type II (CII) induced arthritis in rats; assay: Preventive effect on Collagen Type II (CII) induced arthritis in rats; type: in vivo, Rat, SD strain
Experimental: Inflammation-induced agent: Collagen Type II was dissolved in 0.1 mol/L acetic acid to make final concentration be 2 mg/ml collagen solution, and held in 4° C. overnight. The Collagen Type II solution was added to cold Freund's Adjuvant Incomplete by drops (Collagen Type II: Freund's Adjuvant Incomplete=1:1) on the next day, emulsified completely (Type II Collagen solution: Freund's Adjuvant Incomplete=1:1), and the final concentration of Collagen Type II was 1 mg/ml. The Collagen Type II emulsion was reserved in a refrigerator at 4° C.
Immune method: Each rat was immunized by being injected subcutaneously at 5 points on the back with 0.1 ml emulsion in each point, total of […] (contained 0.5 mg Collagen Type II), and immunized again in the same way 7 days later. An emulsion of 0.1 mol/L acetic acid and Freund's Adjuvant Incomplete was injected in control group. The swell values of the arthrosis in right hind ankle and foot were measured respectively by using a hydroplethismometer before injection and 20 days after immunization.
The Collagen Type II solution, which had been dissolved in acetic acid and held overnight, was adjusted to concentration 2 mg/ml, then added by drops slowly to Freund's Adjuvant Incomplete in proportion of 1:1. After the mixture was emulsified completely, each rat was injected subcutaneously at 5 points on the back with 0.1 ml emulsion in each point (total 0.5 ml in each rat, containing 0.5 mg Collagen Type II) for the first immunization. 7 days later, the second immunization was repeated in the same way.
The animals were divided into large dose group: Ginsenoside Compound-K, 10 mg/kg, iv, medium dose group: Ginsenoside Compound-K, 5 mg/kg, iv, small dose group: Ginsenoside Compound-K, 2.5 mg/kg, iv, Tripterygium Wilfordii Hook group: 1.5 mg/kg, po-, Enbrel group: 9 mg/kg, sc and blank control group: physiological saline 10 mg/kg, iv. The animals of administration groups were administered at the first immunization and stopped administering 8 days after the first immunization. The swell value of arthrosis in ankle and foot was measured by using hydroplethismometer before immunization and on day 20, 22, 24, 27 and 29 after the first immunization respectively. Swell rate and inhibition rate were calculated by the same method as the foregoing. Differences among groups were compared with t test. When the treatment finished, the arthroses in ankle and foot were taken for pathological examination.

[2] = tested on: carrageenan-induced acute inflammation in rats; assay: Carrageenan-induced paw edema in rats; type: in vivo, Rat, SD strain
Experimental: Animals were firstly divided into large dose group: 10 mg/kg, iv, medium dose group: 5 mg/kg, iv, small dose group: 2.5 mg/kg, iv, an Indomethacin group: 1 mg/kg, po and a blank control group: physiological saline 10 mg/kg, iv. The animals were administered by the foregoing method for 3 days. The volume of the right hind paw of the rats was measured using hydroplethismometer before inflammation induced. 1 hour after the last administration, 0.1 ml 1% carrageenan was injected into the plantar surface of the right hind paw in order to induce inflammation. The volume of the right hind paw of the rats was measured by hydroplethismometer every other hour thereafter respectively. Swell rate and inhibition rate were calculated by the same method as above. Differences among groups were compared with t test.

## CC(C)=CCC[C@](C)(O[C@@H]1O[C@H](CO)[C@@H](O)[C@H](O)[C@H]1O)[C@H]1CC[C@]2(C)[C@@H]1[C@H](O)C[C@@H]1[C@@]3(C)CC[C@H](O)C(C)(C)[C@@H]3CC[C@]12C [Ginsenoside Compound-K, ginsenoside Compound-K]
[1]; 2.5 mg/kg iv, 0 day
  swell value: 1.09 ± 0.04 mL
[1]; 2.5 mg/kg iv, 20 day
  inhibition rate: <23.26> %
  swell rate: (40.29 ± 18.03) %
  swell value: 1.39 ± 0.24 mL
[1]; 2.5 mg/kg iv, 22 day
  inhibition rate: <24.39> %
  swell rate: (38.98 ± 18.96) %
  swell value: 1.38 ± 0.24 mL
[1]; 2.5 mg/kg iv, 24 day
  inhibition rate: <25.92> %
  swell rate: (38.92 ± 15.07) %
  swell value: 1.37 ± 0.24 mL
[1]; 2.5 mg/kg iv, 27 day
  inhibition rate: <27.08> %
  swell rate: (36.93 ± 13.02) %
  swell value: 1.35 ± 0.22 mL
[1]; 2.5 mg/kg iv, 29 day
  inhibition rate: <27.60> %
  swell rate: (31.75 ± 13.70) %
  swell value: 1.33 ± 0.17 mL
[1]; 5 mg/kg iv, 0 day
  swell value: 1.11 ± 0.06 mL
[1]; 5 mg/kg iv, 20 day
  inhibition rate: <29.01> %
  swell rate: (37.27 ± 15.30) %
  swell value: 1.43 ± 0.23 mL
[1]; 5 mg/kg iv, 22 day
  inhibition rate: <32.11> %
  swell rate: (35.00 ± 15.12) %
  swell value: 1.41 ± 0.22 mL
[1]; 5 mg/kg iv, 24 day
  inhibition rate: <31.56> %
  swell rate: (35.95 ± 11.21) %
  swell value: 1.45 ± 0.17 mL
[1]; 5 mg/kg iv, 27 day
  inhibition rate: <31.57> %
  swell rate: (34.66 ± 13.01) %
  swell value: 1.41 ± 0.23 mL
[1]; 5 mg/kg iv, 29 day
  inhibition rate: <29.04> %
  swell rate: (31.12 ± 13.81) %
  swell value: 1.39 ± 0.18 mL
[1]; 10 mg/kg iv, 0 day
  swell value: 1.08 ± 0.07 mL
[1]; 10 mg/kg iv, 20 day
  inhibition rate: <32.97> %
  swell rate: (35.19 ± 19.75) %
  swell value: 1.37 ± 0.26 mL
[1]; 10 mg/kg iv, 22 day
  inhibition rate: <47.51> %
  swell rate: (27.06 ± 19.03) %
  swell value: 1.30 ± 0.23 mL
[1]; 10 mg/kg iv, 24 day
  inhibition rate: <48.29> %
  swell rate: (27.16 ± 16.39) %
  swell value: 1.31 ± 0.21 mL
[1]; 10 mg/kg iv, 27 day
  inhibition rate: <44.61> %
  swell rate: (28.05 ± 14.52) %
  swell value: 1.32 ± 0.19 mL
[1]; 10 mg/kg iv, 29 day
  inhibition rate: <34.19> %
  swell rate: (28.86 ± 19.06) %
  swell value: 1.32 ± 0.23 mL
[1]; rats, 10, 5, 2.5 mg/kg iv
  overall preventive effect on Collagen Type II induced arthritis: able to prevent Collagen Type II induced arthritis
[2]; 2.5 mg/kg iv, 0 h
  swell value: 1.33 ± 0.08 mL
[2]; 2.5 mg/kg iv, 1 h
  inhibition rate: <13.97> %
  swell rate: (20.22 ± 9.99) %
  swell value: 1.59 ± 0.08 mL
[2]; 2.5 mg/kg iv, 2 h
  inhibition rate: <8.80> %
  swell rate: (29.40 ± 12.71) %
  swell value: 1.71 ± 0.13 mL
[2]; 2.5 mg/kg iv, 3 h
  inhibition rate: <16.54> %
  swell rate: (34.80 ± 14.01) %
  swell value: 1.79 ± 0.14 mL
[2]; 2.5 mg/kg iv, 4 h
  inhibition rate: <24.08> %
  swell rate: (29.49 ± 13.86) %
  swell value: 1.71 ± 0.12 mL
[2]; 2.5 mg/kg iv, 5 h
  inhibition rate: <15.78> %
  swell rate: (31.22 ± 14.12) %
  swell value: 1.74 ± 0.12 mL
[2]; 5 mg/kg iv, 0 h
  swell value: 1.39 ± 0.12 mL
[2]; 5 mg/kg iv, 1 h
  inhibition rate: <49.51> %
  swell rate: (11.87 ± 6.23) %
  swell value: 1.55 ± 0.11 mL
[2]; 5 mg/kg iv, 2 h
  inhibition rate: <42.44> %
  swell rate: (18.56 ± 9.77) %
  swell value: 1.64 ± 0.09 mL
[2]; 5 mg/kg iv, 3 h
  inhibition rate: <32.62> %
  swell rate: (28.09 ± 11.34) %
  swell value: 1.77 ± 0.12 mL
[2]; 5 mg/kg iv, 4 h
  inhibition rate: <48.22> %
  swell rate: (20.11 ± 11.20) %
  swell value: 1.66 ± 0.13 mL
[2]; 5 mg/kg iv, 5 h
  inhibition rate: <53.80> %
  swell rate: (17.13 ± 10.13) %
  swell value: 1.62 ± 0.11 mL
[2]; 10 mg/kg iv, 0 h
  swell value: 1.42 ± 0.10 mL
[2]; 10 mg/kg iv, 1 h
  inhibition rate: <72.87> %
  swell rate: (6.38 ± 7.44) %
  swell value: 1.51 ± 0.10 mL
[2]; 10 mg/kg iv, 2 h
  inhibition rate: <56.96> %
  swell rate: (13.87 ± 8.55) %
  swell value: 1.62 ± 0.11 mL
[2]; 10 mg/kg iv, 3 h
  inhibition rate: <61.49> %
  swell rate: (16.06 ± 12.41) %
  swell value: 1.65 ± 0.16 mL
[2]; 10 mg/kg iv, 4 h
  inhibition rate: <70.38> %
  swell rate: (11.51 ± 9.76) %
  swell value: 1.58 ± 0.14 mL
[2]; 10 mg/kg iv, 5 h
  inhibition rate: <78.23> %
  swell rate: (8.07 ± 10.88) %
  swell value: 1.53 ± 0.12 mL
[2]; rats, 10, 5, 2.5 mg/kg iv
  overall effect on carrageenan-induced acute inflammation: able to inhibit carrageenan-induced acute inflammation in rats obviously
